We go through 18 compounds from the supplement of paper PMC11061612.

Common to all, as to test: Bliss excess, mean over the matrix (fraction); higher = more synergy
The subject of one test is T98G (Glioblastoma). An outline of the steps: (§1)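 Bliss excess equals the observed combination effect minus the expected value EA + EB − EA·EB, where EA and EB are the effects of each agent alone. Combination Emax is the second-highest inhibition within the matrix. Inhibition was scaled from CellTiter-Glo 2.0 luminescence, with 0 set by vehicle wells and 1 by blank wells, after 72 hours of two-drug dosing of cells plated in 1536-well plates.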

A further test has as its system HOS (Osteosarcoma). An outline of the steps:
as §1

The test system of test [1] is TE-9 (Esophageal Squamous Cell Carcinoma). An outline of the steps:
as §1

Test [2] concerns UM-UC-3 (Bladder Carcinoma). The method in brief:
as §1

Test [3] deals with KURAMOCHI (Ovarian Carcinoma). An outline of the steps:
as §1

In test [4] the test system is NCI-H2085 (Non-Small Cell Lung Carcinoma). An outline of the steps: as §1
The test system of test [5] is Hs-578-T (Breast Carcinoma). An outline of the steps: as §1
Test [6] deals with Calu-3 (Lung Adenocarcinoma). The method in brief: as §1

With `Cc1c2c(nn1C)CSCc1cc(n(C)n1)CSc1cc(c3ccccc3c1)OCCCc1c(C(=O)O)n(C)c3c-2c(Cl)ccc13` [AZD5991] + Nc1ccn([C@@H]2O[C@H](CO)[C@@H](O)C2(F)F)c(=O)n1 [Gemcitabine] (first compound max 1 µM, 7x7, partner max 0.3 µM), the Bliss excess in the test with T98G (Glioblastoma) was 0.0127; in the test on HOS (Osteosarcoma), 0.0054; in test [1], -0.0201; in test [2], -0.0402; in test [3], 0.0117; in test [4], -0.021. For the same compound, the Bliss excess was 0.0298 in test [5] and -0.0191 in test [6].

Consider `C[C@@H]1COCCN1c1cc(C2([S@](C)(=N)=O)CC2)nc(-c2ccnc3[nH]ccc23)n1` [AZD6738] + C1CC(C1)(C(=O)[O-])C(=O)[O-].N.N.[Pt+2] [Carboplatin] (first compound max 10 µM, 7x7, partner max 10 µM), for which the Bliss excess was -0.0401 in the test on T98G (Glioblastoma); -0.0209 in the test on HOS (Osteosarcoma); -0.0215 in test [1]; -0.0213 in test [2]; 0.0222 in test [3]; -0.067 in test [4]. Further, the Bliss excess in test [5] is -0.0559; in test [6], -0.0397.

With `C[C@@H]1COCCN1c1cc(C2([S@](C)(=N)=O)CC2)nc(-c2ccnc3[nH]ccc23)n1` [AZD6738] + Nc1ccn([C@@H]2O[C@H](CO)[C@@H](O)C2(F)F)c(=O)n1 [Gemcitabine] (first compound max 10 µM, 7x7, partner max 0.3 µM), the Bliss excess with T98G (Glioblastoma) was -0.0284; in the test on HOS (Osteosarcoma) it was 0.134; in test [1] it was 0.038; in test [2] it was 0.113; in test [3] it was 0.0761; in test [4], 0.07. Moreover, the Bliss excess amounted to 0.012 in test [5] and 0.0685 in test [6].

In the case of `Cc1cc2ncnn2cc1Nc1ncc2c(n1)n(C1CCOCC1)c(=O)n2C` [AZD7648] + COc1cc([C@@H]2c3cc4c(cc3[C@@H](O[C@@H]3O[C@@H]5CO[C@@H](C)O[C@H]5[C@H](O)[C@H]3O)[C@H]3COC(=O)[C@H]23)OCO4)cc(OC)c1O [Etoposide] (first compound max 10 µM, 7x7, partner max 10 µM), the Bliss excess was 0.12 with T98G (Glioblastoma); 0.0772 in the test with HOS (Osteosarcoma); 0.0158 in test [1]; 0.105 in test [2]; 0.0716 in test [3]; 0.0734 in test [4]. Also, the results for the Bliss excess in test [5] and in test [6] were 0.0777 and 0.1, respectively.

Turning to `C[C@@H](Nc1cc(F)cc(F)c1)c1cc(C(=O)N(C)C)cc2c(=O)cc(N3CCOCC3)oc12` [AZD8186] + C1CN(CCC1(C(=O)N[C@@H](CCO)C2=CC=C(C=C2)Cl)N)C3=NC=NC4=C3C=CN4 [AZD5363] (first compound max 10 µM, 7x7, partner max 10 µM), the Bliss excess in the test on T98G (Glioblastoma) is 0.0381; with HOS (Osteosarcoma), -0.0447; in test [1], -0.0405; in test [2], 0.0454; in test [3] it was -0.037; in test [4], -0.045. The Bliss excess was -0.0815 in test [5] and 0.0001 in test [6].

Take `C[C@@H](Nc1cc(F)cc(F)c1)c1cc(C(=O)N(C)C)cc2c(=O)cc(N3CCOCC3)oc12` [AZD8186] + CC(=O)c1c(C)c2cnc(Nc3ccc(N4CCNCC4)cn3)nc2n(C2CCCC2)c1=O [Palbociclib] (first compound max 10 µM, 7x7, partner max 10 µM): the Bliss excess with T98G (Glioblastoma) is 0.0744; in the test with HOS (Osteosarcoma), -0.0227; in test [1] it was -0.0589; in test [2], 0.131; in test [3] it was -0.0358; in test [4] it was 0.0565. The Bliss excess is -0.0091 in test [5] and -0.0036 in test [6].

With `C[C@@H](Oc1cc(-c2cnn(C3CCNCC3)c2)cnc1N)c1c(Cl)ccc(F)c1Cl` [Crizotinib] + CC1=C(C(=CC=C1)Cl)NC(=O)C2=CN=C(S2)NC3=CC(=NC(=N3)C)N4CCN(CC4)CCO [Dasatinib] (first compound max 10 µM, 7x7, partner max 2 µM), the Bliss excess in the test with T98G (Glioblastoma) was 0.0943; with HOS (Osteosarcoma), -0.0153; in test [1], 0.0657; in test [2], 0.0577; in test [3], -0.0038; in test [4], 0.0551. The Bliss excess in test [5] was 0.0455; in test [6] it was -0.0158.

Regarding `C[C@@H](Oc1cc(-c2cnn(C3CCNCC3)c2)cnc1N)c1c(Cl)ccc(F)c1Cl` [Crizotinib] + Cn1cnc2c(F)c(Nc3ccc(Br)cc3Cl)c(C(=O)NOCCO)cc21 [Selumetinib] (first compound max 10 µM, 7x7, partner max 10 µM), the Bliss excess was -0.0578 with T98G (Glioblastoma); -0.0566 with HOS (Osteosarcoma); -0.0199 in test [1]; -0.0136 in test [2]; -0.0483 in test [3]; -0.0399 in test [4]. Also, the Bliss excess in test [5] was -0.0131; in test [6], -0.0507.

Regarding `CS(=O)(=O)CCNCc1ccc(-c2ccc3ncnc(Nc4ccc(OCc5cccc(F)c5)c(Cl)c4)c3c2)o1` [Lapatinib] + Cn1cnc2c(F)c(Nc3ccc(Br)cc3Cl)c(C(=O)NOCCO)cc21 [Selumetinib] (first compound max 10 µM, 7x7, partner max 10 µM), the Bliss excess was 0.0075 with T98G (Glioblastoma); -0.0848 in the test with HOS (Osteosarcoma); -0.0341 in test [1]; 0.0547 in test [2]; -0.0116 in test [3]; -0.0366 in test [4]. Moreover, the Bliss excess in test [5] was -0.0311; in test [6], -0.009.

On to `O=C(c1cc(Cc2n[nH]c(=O)c3ccccc23)ccc1F)N1CCN(C(=O)C2CC2)CC1` [Olaparib] + CC1(C)CCC(CN2CCN(c3ccc(C(=O)NS(=O)(=O)c4ccc(NCC5CCOCC5)c([N+](=O)[O-])c4)c(Oc4cnc5[nH]ccc5c4)c3)CC2)=C(c2ccc(Cl)cc2)C1 [Venetoclax] (first compound max 10 µM, 7x7, partner max 1 µM), for which the Bliss excess in the test on T98G (Glioblastoma) is -0.0269; in the test with HOS (Osteosarcoma), -0.0626; in test [1], -0.045; in test [2], -0.0528; in test [3], -0.0482; in test [4], -0.0608. Further, the Bliss excess in test [5] is -0.115; in test [6], -0.0406.

For `O=C(c1cc(Cc2n[nH]c(=O)c3ccccc23)ccc1F)N1CCN(C(=O)C2CC2)CC1` [Olaparib] + CN(CC[C@H](CSC1=CC=CC=C1)NC2=C(C=C(C=C2)S(=O)(=O)NC(=O)C3=CC=C(C=C3)N4CCC(CC4)[C@H](C5=CC=CC=C5C6=CC=C(C=C6)Cl)O)S(=O)(=O)C(F)(F)F)CCO [AZD4320] (first compound max 10 µM, 7x7, partner max 1 µM), the Bliss excess was 0.0008 with T98G (Glioblastoma); 0.0192 in the test on HOS (Osteosarcoma); -0.003 in test [1]; 0.0086 in test [2]; -0.0414 in test [3]; -0.0134 in test [4]. Besides, the Bliss excess was -0.0625 in test [5] and -0.027 in test [6].

Regarding `O=C(c1cc(Cc2n[nH]c(=O)c3ccccc23)ccc1F)N1CCN(C(=O)C2CC2)CC1` [Olaparib] + COc1nnc2ccc(N3CCC(c4ccc(OCCN5CCN(C)C(=O)[C@H]5C)cc4)CC3)nn12 [AZD5153] (first compound max 10 µM, 7x7, partner max 1 µM), the Bliss excess in the test on T98G (Glioblastoma) is -0.0501; with HOS (Osteosarcoma), -0.057; in test [1], -0.0663; in test [2], -0.0014; in test [3], -0.0231; in test [4] it was -0.0423. Moreover, the Bliss excess in test [5] was -0.0551; in test [6] it was -0.0339.

`O=C(c1cc(Cc2n[nH]c(=O)c3ccccc23)ccc1F)N1CCN(C(=O)C2CC2)CC1` [Olaparib] + Cc1c2c(nn1C)CSCc1cc(n(C)n1)CSc1cc(c3ccccc3c1)OCCCc1c(C(=O)O)n(C)c3c-2c(Cl)ccc13 [AZD5991] (first compound max 10 µM, 7x7, partner max 1 µM): the Bliss excess was -0.0277 in the test with T98G (Glioblastoma); -0.0292 in the test on HOS (Osteosarcoma); -0.0397 in test [1]; -0.0182 in test [2]; -0.0546 in test [3]; -0.062 in test [4]. Moreover, the Bliss excess was -0.0621 in test [5] and -0.0453 in test [6].

On to `N#Cc1cnc(Nc2cc(NC[C@H]3CNCCO3)c(C(F)(F)F)cn2)cn1` [SRA737] + CCc1c2c(nc3ccc(O)cc13)-c1cc3c(c(=O)n1C2)COC(=O)[C@]3(O)CC [SN-38] (first compound max 10 µM, 7x7, partner max 0.3 µM), for which the Bliss excess was 0.0065 in the test with T98G (Glioblastoma); 0.0136 in the test with HOS (Osteosarcoma); -0.0181 in test [1]; -0.0017 in test [2]; -0.0093 in test [3]; -0.0053 in test [4]. Also, the Bliss excess in test [5] is 0.114; in test [6] it was -0.0477.

As to `N#Cc1cnc(Nc2cc(NC[C@H]3CNCCO3)c(C(F)(F)F)cn2)cn1` [SRA737] + Nc1ccn([C@@H]2O[C@H](CO)[C@@H](O)C2(F)F)c(=O)n1 [Gemcitabine] (first compound max 10 µM, 7x7, partner max 0.3 µM), the Bliss excess in the test with T98G (Glioblastoma) was 0.0323; in the test with HOS (Osteosarcoma), 0.114; in test [1], 0.0126; in test [2] it was 0.0629; in test [3] it was -0.0079; in test [4] it was -0.0192. Also, the Bliss excess in test [5] amounted to 0.0695; in test [6], 0.0286.

For the compound `N#Cc1cnc(Nc2cc(NC[C@H]3CNCCO3)c(C(F)(F)F)cn2)cn1` [SRA737] + O=c1[nH]cc(F)c(=O)[nH]1 [5-Fluorouracil] (first compound max 10 µM, 7x7, partner max 20 µM), the Bliss excess is -0.0277 in the test on T98G (Glioblastoma); 0.0248 in the test on HOS (Osteosarcoma); 0.0599 in test [1]; -0.0007 in test [2]; -0.0351 in test [3]; -0.0495 in test [4]. For the same compound, the Bliss excess was 0.0056 in test [5] and -0.0137 in test [6].

On to `Cc1nc(-c2cn3c(n2)-c2ccc(-c4cnn(C(C)(C)C(N)=O)c4)cc2OCC3)n(C(C)C)n1` [Taselisib] + O=C(Nc1ccc2[nH]nc(-c3ccncc3)c2c1)[C@@H]1CCN(CC(=O)N2CCN(c3ccc(-c4ncccn4)cc3)CC2)C1 [SCH772984] (first compound max 10 µM, 7x7, partner max 5 µM), for which the Bliss excess with T98G (Glioblastoma) was 0.0838; in the test with HOS (Osteosarcoma) it was 0.0044; in test [1], 0.0303; in test [2], 0.0679; in test [3] it was 0.0721; in test [4] it was -0.0174. In addition, the figures for the Bliss excess in test [5] and in test [6] were 0.0748 and -0.0287, respectively.

As to `CC1(C)CCC(CN2CCN(c3ccc(C(=O)NS(=O)(=O)c4ccc(NCC5CCOCC5)c([N+](=O)[O-])c4)c(Oc4cnc5[nH]ccc5c4)c3)CC2)=C(c2ccc(Cl)cc2)C1` [Venetoclax] + CS(=O)(=O)CCNCc1ccc(-c2ccc3ncnc(Nc4ccc(OCc5cccc(F)c5)c(Cl)c4)c3c2)o1 [Lapatinib] (first compound max 1 µM, 7x7, partner max 10 µM), the Bliss excess was -0.0049 with T98G (Glioblastoma); -0.087 with HOS (Osteosarcoma); -0.0254 in test [1]; -0.0207 in test [2]; -0.0415 in test [3]; -0.0267 in test [4]. In addition, the Bliss excess in test [5] was -0.0054; in test [6], -0.0529.
